Test results published in patent US11034725B2, “Compositions and methods for treating cardiovascular disease” (Genentech, Inc., priority 2016, dated 2021).
Like-named read-outs stand apart in the source and are kept apart here. Bridge positions count the residues as written; N and C are the ends. Square brackets hold non-standard residues; d marks the D form. Peptide text beside a SMILES is read from it. * marks the point of attachment. Trp(6-Cl) = N[C@@H](Cc1c[nH]c2cc(Cl)ccc12)C(=O)O; Trp(6-F) = N[C@@H](Cc1c[nH]c2cc(F)ccc12)C(=O)O; Trp(6-Me) = Cc1ccc2c(C[C@H](N)C(=O)O)c[nH]c2c1; hArg = N=C(N)NCCCC[C@H](N)C(=O)O; Pentanoyl = CCCCC(=O)*; Ahp = NCCCCCCC(=O)O; Butyryl = CCCC(=O)*; Ahx = NCCCCCC(=O)O

Assays:
PCSK9Δhelix = biological target: T1, PCSK9Δhelix (Homo sapiens, UniProt Q8NBP7); test: PCSK9Δhelix/Ab20 TR-FRET binding assay; conditions: for IC50: TR-FRET, read-out: PCSK9Δhelix/Ab20 IC50
T1 construct: Human PCSK9 construct M1-Q692 with an engineered TEV site (residue deletion Y166, R167); made in house; host or cells: CHO

His-EGF(A)-Fc = His-EGF(A)-Fc TR-FRET counterscreen; conditions: TR-FRET counterscreen
PCSK9 = PCSK9 (Homo sapiens, UniProt Q8NBP7); test: PCSK9/EGF(A) TR-FRET binding assay; conditions: TR-FRET, read-out: PCSK9/EGF(A) IC50
Protocol: The former was based on a TF-FRET assay to measure the association of the EGF(A) domain of the LDLR to PCSK9 (“PCSK9/EGF(A) binding assay”) whilst the latter was based on a TR-FRET assay to measure binding of Ab20 to PCSK9Δhelix (“PCSK9Δhelix/Ab20 binding assay”).
The ability of compounds to inhibit binding to PCSK9 was evaluated with a panel of time-resolved fluorescence resonance energy transfer (TR-FRET) binding assays. […] The PCSK9Δhelix/Ab20 binding assay evaluated the ability of compounds to compete with Ab20 for binding to the N-terminal groove region in a His-tagged, PCSK9Δhelix construct. […] Signal generation in the PCSK9 binding assays was dependent upon the binding interaction to bring into close proximity the His-tag on the PCSK9 and the Fc-tag on the ligand. Anti-His-APC was bound to the His-tag, and anti-Fc-europium was bound to the Fc-tag. When these two antibodies were in close proximity and were irradiated with light at 340 nm, the europium was excited and emitted energy at 615 nm. This energy was taken up by the APC and was emitted as light at 665 nm. Compounds that competed with the ligand reduced the energy transfer and thus the emission at 665 nm. In the His-EGFA-Fc molecule in the counterscreen, the two tags were always in close proximity, thus any reduction in emission at 665 nm was due to interference with the detection system.
Compounds were solubilized and dilutions were prepared in DMSO. […] The plate was centrifuged to mix the well contents and allowed to incubate for 30 min. […] The TR-FRET signal was read on a ViewLux reader (PerkinElmer) with excitation at 340 nm and emission at 615 and 665 nm with a 50-μs time delay between excitation and measurement of emission. The TR-FRET ratio was calculated as the fluorescence emission at 665 nm divided by the fluorescence emission at 615 nm. The normalized TR-FRET ratios were plotted as a function of the compound concentrations, and the IC50 values were determined using a 4-parameter logistic regression.
In black 1536-well assay plates (MaKO, Aurora® Microplates, Whitefish, Mont.), 40 nL of peptide in DMSO were preincubated with 2 μL His-tagged PCSK9 plus anti-His-allophycocyanin in assay buffer (50 mM Tris-HCl, pH 7.5, 150 mM NaCl, 2 mM CaCl2, 0.01% Tween®-20, 0.1% bovine gamma globulins, and protease inhibitor cocktail) for 30 min. Then 2 μL of Fc-tagged ligand and anti-Fc-europium in assay buffer were added and allowed to incubate for 2 h.

[1] = Table 8D, disulfide-cyclized extension peptides
[2] = Table 8D, * = some inhibition at highest concentrations, not sufficient to fit an IC50

Sequence of PCSK9 (Q8NBP7 153-692): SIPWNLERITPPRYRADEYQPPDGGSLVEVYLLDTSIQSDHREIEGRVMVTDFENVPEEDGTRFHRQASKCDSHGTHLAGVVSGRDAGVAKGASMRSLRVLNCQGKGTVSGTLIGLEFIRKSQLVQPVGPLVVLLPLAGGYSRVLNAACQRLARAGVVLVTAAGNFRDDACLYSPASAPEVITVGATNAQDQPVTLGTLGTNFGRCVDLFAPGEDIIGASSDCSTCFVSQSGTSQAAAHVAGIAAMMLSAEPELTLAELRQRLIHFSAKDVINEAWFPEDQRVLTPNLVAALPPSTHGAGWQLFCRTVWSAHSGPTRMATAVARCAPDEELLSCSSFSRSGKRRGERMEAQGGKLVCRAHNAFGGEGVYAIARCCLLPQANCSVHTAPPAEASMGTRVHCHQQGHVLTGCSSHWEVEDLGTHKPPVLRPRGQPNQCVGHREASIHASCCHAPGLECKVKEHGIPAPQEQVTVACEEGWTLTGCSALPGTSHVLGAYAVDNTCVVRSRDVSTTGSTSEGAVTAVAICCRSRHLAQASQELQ
Sequence of PCSK9 (Q8NBP7 31-152 partner limits assumed): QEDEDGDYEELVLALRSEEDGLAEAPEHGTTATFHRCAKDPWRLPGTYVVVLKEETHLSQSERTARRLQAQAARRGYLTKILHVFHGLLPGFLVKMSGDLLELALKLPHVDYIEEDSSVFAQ
T1 sequence (Q8NBP7 with tags, fused parts or gaps limits assumed): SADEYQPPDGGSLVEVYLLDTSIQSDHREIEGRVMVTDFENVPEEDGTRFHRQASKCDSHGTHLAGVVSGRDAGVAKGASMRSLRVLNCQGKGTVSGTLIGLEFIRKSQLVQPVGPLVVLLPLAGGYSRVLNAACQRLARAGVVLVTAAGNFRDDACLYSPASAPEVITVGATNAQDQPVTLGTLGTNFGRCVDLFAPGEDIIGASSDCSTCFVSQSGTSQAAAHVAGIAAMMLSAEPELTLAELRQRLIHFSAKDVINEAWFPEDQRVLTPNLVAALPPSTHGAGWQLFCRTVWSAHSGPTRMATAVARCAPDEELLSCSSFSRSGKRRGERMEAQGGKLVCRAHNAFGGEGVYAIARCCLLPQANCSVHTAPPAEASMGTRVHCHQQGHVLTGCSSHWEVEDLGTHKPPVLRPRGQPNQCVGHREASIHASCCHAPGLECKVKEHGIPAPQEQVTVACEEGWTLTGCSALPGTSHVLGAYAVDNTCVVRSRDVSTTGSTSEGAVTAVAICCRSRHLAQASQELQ
T1 sequence (Q8NBP7 31-152 partner limits assumed): as the sequence (Q8NBP7 31-152 partner limits assumed) above

| Compound | inhibition in the PCSK9Δhelix/Ab20 binding assay (PCSK9Δhelix) | IC50 (PCSK9Δhelix; [1]) [µM] | IC50 (His-EGF(A)-Fc; [2]) [µM] | IC50 (PCSK9; [1]) [µM] | IC50 (PCSK9Δhelix; Table 8E, additional compounds) [µM] | IC50 (His-EGF(A)-Fc; Table 8E, additional compounds) [µM] | IC50 (PCSK9; Table 8E, additional compounds) [µM] |
| --- | --- | --- | --- | --- | --- | --- | --- |
| CC[C@H](C)[C@@H]1NC(=O)[C@H](CCCNC(=N)N)NC(=O)[C@H](CCC(N)=O)NC(=O)[C@H](CC(C)C)NC(=O)[C@H](CC(N)=O)NC(=O)[C@H](Cc2c[nH]c3ccccc23)NC(=O)[C@@H]2CCCN2C(=O)[C@H](CC(C)C)NC(=O)[C@H](CCCNC(=N)N)NC(=O)[C@@H](NC(C)=O)CSSC[C@@H](C(N)=O)NC(=O)CCCCCNC1=O [Compound 116] (Ac-CRLPWNLQRI[Ahx]C-NH2; disulfide 1-12) | weak but detectable inhibition | 31.6 | > 50 | > 50 |  |  |  |
| CC[C@H](C)[C@@H]1NC(=O)[C@H](CCCCNC(=N)N)NC(=O)[C@H](CCC(N)=O)NC(=O)[C@H](CC(C)C)NC(=O)[C@H](CC(N)=O)NC(=O)[C@H](Cc2c[nH]c3ccccc23)NC(=O)[C@@H]2CCCN2C(=O)[C@H](CC(C)C)NC(=O)[C@H](CCCNC(=N)N)NC(=O)[C@@H](NC(C)=O)CSSC[C@@H](C(N)=O)NC(=O)[C@@H]2CCCN2C(=O)[C@H](CC(C)C)NC(=O)CNC1=O [Compound 117] (Ac-CRLPWNLQ[hArg]IGLPC-NH2; disulfide 1-14) |  | 0.334 | > 50 | > 50 |  |  |  |
| CC[C@H](C)[C@@H]1NC(=O)[C@H](CCCNC(=N)N)NC(=O)[C@H](CCC(N)=O)NC(=O)[C@H](CC(C)C)NC(=O)[C@H](CC(N)=O)NC(=O)[C@H](Cc2c[nH]c3ccccc23)NC(=O)[C@@H]2CCCN2C(=O)[C@H](CC(C)C)NC(=O)[C@H](CCCNC(=N)N)NC(=O)[C@@H](NC(C)=O)CSSC[C@@H](C(N)=O)NC(=O)CCCCCCNC1=O [Compound 121] (Ac-CRLPWNLQRI[Ahp]C-NH2; disulfide 1-12) | weak but detectable inhibition | 40.3 | > 50 | > 50 |  |  |  |
| CCCC(=O)N[C@@H](Cc1c[nH]c2ccccc12)C(=O)N[C@@H](CC(N)=O)C(=O)N[C@@H](CC(C)C)C(=O)N[C@H](C(=O)N[C@@H](CCCNC(=N)N)C(=O)N[C@H](C(=O)NCC(=O)N[C@@H](CC(C)C)C(=O)N[C@@H](CC(C)C)C(=O)N[C@@H](CCCNC(=N)N)C(N)=O)[C@@H](C)CC)C(C)C [Compound 123] (Butyryl-WNLVRIGLLR-NH2) |  |  |  |  | 18 | ≥ 50 | ≥ 50 |
| CCCCC(=O)N[C@@H](Cc1c[nH]c2ccccc12)C(=O)N[C@@H](CC(N)=O)C(=O)N[C@@H](CC(C)C)C(=O)N[C@H](C(=O)N[C@@H](CCCNC(=N)N)C(=O)N[C@H](C(=O)NCC(=O)N[C@@H](CC(C)C)C(=O)N[C@@H](CC(C)C)C(=O)N[C@@H](CCCNC(=N)N)C(=O)O)[C@@H](C)CC)C(C)C [Compound 152] (Pentanoyl-WNLVRIGLLR-OH) |  |  |  |  | 14 | ≥ 50 | 43 |
| CCCCC(=O)N[C@@H](Cc1c[nH]c2ccccc12)C(=O)N[C@@H](CC(N)=O)C(=O)N[C@@H](CC(C)C)C(=O)N[C@@H](CCCCN)C(=O)N[C@@H](CCCNC(=N)N)C(=O)N[C@H](C(=O)NCC(=O)N[C@@H](CC(C)C)C(=O)N[C@@H](CC(C)C)C(=O)N[C@@H](CCCNC(=N)N)C(N)=O)[C@@H](C)CC [Compound 159] (Pentanoyl-WNLKRIGLLR-NH2) |  |  |  |  | 6.6 | ≥ 50 | ≥ 50 |
| CCCCC(=O)N[C@@H](Cc1c[nH]c2cc(F)ccc12)C(=O)N[C@@H](CC(N)=O)C(=O)N[C@@H](CC(C)C)C(=O)N[C@H](C(=O)N[C@@H](CCCNC(=N)N)C(=O)N[C@H](C(=O)NCC(=O)N[C@@H](CC(C)C)C(=O)N[C@H](C(=O)N[C@@H](CCCNC(=N)N)C(N)=O)[C@@H](C)O)[C@@H](C)CC)C(C)C [Compound 174] (Pentanoyl-[Trp(6-F)]NLVRIGLTR-NH2) |  |  |  |  | 6.2 | ≥ 50 | ≥ 50 |
| CCCCC(=O)N[C@@H](Cc1c[nH]c2cc(C)ccc12)C(=O)N[C@@H](CC(N)=O)C(=O)N[C@@H](CC(C)C)C(=O)N[C@H](C(=O)N[C@@H](CCCNC(=N)N)C(=O)N[C@H](C(=O)NCC(=O)N[C@@H](CC(C)C)C(=O)N[C@H](C(=O)N[C@@H](CCCNC(=N)N)C(N)=O)[C@@H](C)O)[C@@H](C)CC)C(C)C [Compound 175] (Pentanoyl-[Trp(6-Me)]NLVRIGLTR-NH2) |  |  |  |  | 39 | ≥ 50 | ≥ 50 |
| CCCCC(=O)N[C@@H](Cc1c[nH]c2ccccc12)C(=O)N[C@@H](CC(N)=O)C(=O)N[C@@H](CC(C)C)C(=O)N[C@H](C(=O)N[C@@H](CCCNC(=N)N)C(=O)N[C@H](C(=O)NCC(=O)N[C@@H](CC(C)C)C(=O)N[C@H](C(=O)N[C@@H](CCCNC(=N)N)C(=O)O)[C@@H](C)O)[C@@H](C)CC)C(C)C [Compound 176] (Pentanoyl-WNLVRIGLTR-OH) |  |  |  |  | 18 | ≥ 50 | ≥ 50 |
| CCCCC(=O)N[C@@H](Cc1c[nH]c2ccccc12)C(=O)N[C@@H](CC(N)=O)C(=O)N[C@@H](CC(C)C)C(=O)N[C@H](C(=O)N[C@@H](CCCNC(=N)N)C(=O)N[C@H](C(=O)NCC(=O)N[C@@H](CC(C)C)C(=O)N[C@@H](CC(=O)O)C(=O)N[C@@H](CCCNC(=N)N)C(N)=O)[C@@H](C)CC)C(C)C [Compound 178] (Pentanoyl-WNLVRIGLDR-NH2) |  |  |  |  | 18 | ≥ 50 | ≥ 50 |
| CCCCC(=O)N[C@@H](Cc1c[nH]c2ccccc12)C(=O)N[C@@H](CC(N)=O)C(=O)N[C@@H](CC(C)C)C(=O)N[C@H](C(=O)N[C@@H](CCCNC(=N)N)C(=O)N[C@H](C(=O)NCC(=O)N[C@@H](CC(C)C)C(=O)NCC(=O)N[C@@H](CCCNC(=N)N)C(N)=O)[C@@H](C)CC)C(C)C [Compound 179] (Pentanoyl-WNLVRIGLGR-NH2) |  |  |  |  | 11 | ≥ 50 | ≥ 50 |
| CCCCC(=O)N[C@@H](Cc1c[nH]c2ccccc12)C(=O)N[C@@H](CC(N)=O)C(=O)N[C@@H](CC(C)C)C(=O)N[C@H](C(=O)N[C@@H](CCCNC(=N)N)C(=O)N[C@H](C(=O)NCC(=O)N[C@@H](CC(C)C)C(=O)N[C@@H](C)C(=O)N[C@@H](CCCNC(=N)N)C(N)=O)[C@@H](C)CC)C(C)C [Compound 180] (Pentanoyl-WNLVRIGLAR-NH2) |  |  |  |  | 12 | ≥ 50 | ≥ 50 |
| CCCCC(=O)N[C@@H](Cc1c[nH]c2cc(Cl)ccc12)C(=O)N[C@@H](CC(N)=O)C(=O)N[C@@H](CC(C)C)C(=O)N[C@H](C(=O)N[C@@H](CCCNC(=N)N)C(=O)N[C@H](C(=O)NCC(=O)N[C@@H](CC(C)C)C(=O)N[C@H](C(=O)N[C@@H](CCCNC(=N)N)C(N)=O)[C@@H](C)O)[C@@H](C)CC)C(C)C [Compound 186] (Pentanoyl-[Trp(6-Cl)]NLVRIGLTR-NH2) |  |  |  |  | 11 | 46 | 31 |
| CCCCC(=O)N[C@@H](Cc1c[nH]c2ccccc12)C(=O)N[C@@H](CC(N)=O)C(=O)N[C@@H](CC(C)C)C(=O)N[C@H](C(=O)N[C@@H](CCCCNC(=N)N)C(=O)N[C@H](C(=O)NCC(=O)N[C@@H](CC(C)C)C(=O)N[C@@H](CC(C)C)C(=O)N[C@@H](CCCNC(=N)N)C(=O)O)[C@@H](C)CC)C(C)C [Compound 195, n-BuC(O)-WNLV(homoR)IGLLR] (Pentanoyl-WNLV[hArg]IGLLR-OH) |  |  |  |  | 1.7 | 45 | 22 |
| CC[C@H](C)[C@H](NC(=O)[C@H](CCCCNC(=N)N)NC(=O)[C@H](CCCCN)NC(=O)[C@H](CC(C)C)NC(=O)[C@H](CC(N)=O)NC(=O)[C@H](Cc1c[nH]c2ccccc12)NC(=O)CNC(=O)[C@@H]1CCCN1C(=O)[C@H](Cc1ccccc1)NC(=O)[C@H](C)NC(=O)[C@H](Cc1ccccc1)NC(=O)[C@H](CO)NC(C)=O)C(=O)NCC(=O)N[C@@H](CC(C)C)C(=O)N[C@@H](CC(C)C)C(=O)N[C@@H](CCCNC(=N)N)C(N)=O [Compound 232] (Ac-SFAFPGWNLK[hArg]IGLLR-NH2) |  |  |  |  | 13 | ≥ 50 | 0.93 |
| CCCCC(=O)N[C@@H](Cc1c[nH]c2ccccc12)C(=O)N[C@@H](CC(N)=O)C(=O)N[C@@H](CC(C)C)C(=O)N[C@H](C(=O)N[C@@H](CCCCNC(=N)N)C(=O)N[C@H](C(=O)NCC(=O)N[C@@H](CC(C)C)C(=O)N[C@H](C(=O)N[C@@H](CCCNC(=N)N)C(N)=O)[C@@H](C)O)[C@@H](C)CC)C(C)C [Compound 234, n-BuC(O)-WNLV(homoR)IGLTR-NH2] (Pentanoyl-WNLV[hArg]IGLTR-NH2) |  |  |  |  | 1.4 | ≥ 50 | ≥ 50 |
| CCCCC(=O)N[C@@H](Cc1c[nH]c2ccccc12)C(=O)N[C@@H](CC(N)=O)C(=O)N[C@@H](CC(C)C)C(=O)N[C@H](C(=O)N[C@@H](CCCCNC(=N)N)C(=O)N[C@H](C(=O)NCC(=O)N[C@@H](CC(C)C)C(=O)N[C@H](C(=O)N[C@@H](CCCNC(=N)N)C(=O)O)[C@@H](C)O)[C@@H](C)CC)C(C)C [Compound 235, n-BuC(O)-WNLV(homoR)IGLTR] (Pentanoyl-WNLV[hArg]IGLTR-OH) |  |  |  |  | 2.7 | ≥ 50 | ≥ 50 |
